The source of these data is ChEMBL document CHEMBL1124659 (J Med Chem, 1989).

Broadly, the Ki is the dissociation constant of the complex between target and ligand, obtained from inhibition or displacement. A higher Ki goes with lower affinity.

For experiment [1], the target named is T1, Angiotensin II receptor (Rattus norvegicus, UniProt P29089+P25095+P35351).
T1 sequence (P29089 whole entry): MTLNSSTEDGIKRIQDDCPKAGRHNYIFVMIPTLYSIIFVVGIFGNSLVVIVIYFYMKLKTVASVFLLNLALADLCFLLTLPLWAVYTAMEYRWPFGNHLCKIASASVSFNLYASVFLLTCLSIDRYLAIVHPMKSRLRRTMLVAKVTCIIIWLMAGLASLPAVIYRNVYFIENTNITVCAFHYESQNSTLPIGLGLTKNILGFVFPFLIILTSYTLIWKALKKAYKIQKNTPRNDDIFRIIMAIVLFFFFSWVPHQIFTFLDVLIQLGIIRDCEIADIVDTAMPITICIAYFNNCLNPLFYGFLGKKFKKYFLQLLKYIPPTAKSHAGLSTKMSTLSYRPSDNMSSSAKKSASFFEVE
T1 sequence (P25095 whole entry): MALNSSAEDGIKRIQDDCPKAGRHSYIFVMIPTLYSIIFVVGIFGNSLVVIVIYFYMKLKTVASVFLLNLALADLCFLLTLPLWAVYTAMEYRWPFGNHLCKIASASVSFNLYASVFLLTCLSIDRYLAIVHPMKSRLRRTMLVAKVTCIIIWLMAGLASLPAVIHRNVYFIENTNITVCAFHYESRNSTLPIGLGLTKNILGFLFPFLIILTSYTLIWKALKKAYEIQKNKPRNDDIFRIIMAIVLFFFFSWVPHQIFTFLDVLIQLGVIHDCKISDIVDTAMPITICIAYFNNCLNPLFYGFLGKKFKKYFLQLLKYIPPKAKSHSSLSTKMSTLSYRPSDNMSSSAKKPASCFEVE
T1 sequence (P35351 whole entry): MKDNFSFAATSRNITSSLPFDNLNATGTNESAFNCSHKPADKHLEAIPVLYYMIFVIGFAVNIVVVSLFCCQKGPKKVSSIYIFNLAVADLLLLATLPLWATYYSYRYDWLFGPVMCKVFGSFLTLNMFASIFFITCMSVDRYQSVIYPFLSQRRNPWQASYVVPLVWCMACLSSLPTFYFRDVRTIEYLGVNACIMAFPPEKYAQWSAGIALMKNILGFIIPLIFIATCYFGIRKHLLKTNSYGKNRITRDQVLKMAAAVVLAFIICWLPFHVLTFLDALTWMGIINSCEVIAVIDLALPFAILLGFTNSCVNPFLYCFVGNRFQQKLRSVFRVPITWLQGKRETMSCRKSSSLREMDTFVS
The experiment in a line: Tested for inhibition of radioligand [Sar1,Ile5,8]AII binding to angiotensin II receptor in rat brain. It is filed as tissue-based.

Experiment [2] has as its target T1, Angiotensin II receptor. Description: Tested for inhibition of radioligand [Sar1,Ile5,8]AII binding to angiotensin II receptor in rat uterus.
In experiment [3] the target is T2, Angiotensin II receptor (Rattus norvegicus) (UniProt P29089+P25095+P35351). Description: Inhibitory activity was determined against Angiotensin II receptor in rat uterine preparations at a compound dose of 2 ng/mL.
The species entered for experiment [4] is Rattus norvegicus. Description: Time period for the pressor response of angiotensin II to return to 50% of its treatment level at a compound dose of 30 ug. It is filed as functional, organism-based.
For experiment [5], the species on record is Rattus norvegicus. Description: Time period for the pressor response of angiotensin II to return to 50% of its treatment level at a compound dose of 60 ug. In kind it is functional, organism-based.
Experiment [6] has as its target T2, Angiotensin II receptor (Rattus norvegicus). Description: Inhibitory activity was determined against Angiotensin II receptor in rat uterine preparations at a compound dose of 4 ng/mL.
For experiment [7], the species on record is Rattus norvegicus. The experiment in a line: Time period for the pressor response of angiotensin II to return to 50% of its treatment level at a compound dose of 10 ug. It is filed as functional, organism-based.
Experiment [8] has as its target T2, Angiotensin II receptor (Rattus norvegicus). The experiment in a line: Inhibitory activity was determined against Angiotensin II receptor in rat uterine preparations at a compound dose of 6 ng/mL.
For experiment [9], the species on record is Rattus norvegicus. Description: Inhibitory activity was determined in rat uterine preparations at a compound dose of 2 ng/mL. In kind it is functional.
The species entered for experiment [10] is Rattus norvegicus. Description: Inhibitory activity was determined in rat uterine preparations at a compound dose of 4 ng/mL. It is filed as functional.
Experiment [11] is filed under the species Rattus norvegicus. The experiment in a line: Inhibitory activity was determined in rat uterine preparations at a compound dose of 6 ng/mL. In kind it is functional.
The species named for experiment [12] is Rattus norvegicus. The experiment in a line: Agonistic activity in rat uterine preparations. It is filed as functional.

Take `CNCC(=O)N[C@@H](CCCN=C(N)N)C(=O)N[C@H](C(=O)N[C@@H](Cc1ccc(O)cc1)C(=O)N[C@H](C(=O)N[C@@H](Cc1c[nH]cn1)C(=O)N1CCC[C@H]1C(=O)NC1(C(=O)O)Cc2ccccc2C1)C(C)C)C(C)C` [listing 1 of 2 here]: the Ki in [1] came to 1.82 nM; in experiment [2], 1.52 nM.

In the case of `CNCC(=O)N[C@@H](CCCN=C(N)N)C(=O)N[C@H](C(=O)N[C@@H](Cc1ccc(O)cc1)C(=O)N[C@H](C(=O)N[C@@H](Cc1c[nH]cn1)C(=O)N1CCC[C@@H]1C(=O)N[C@H](CC(C)C)C(=O)O)C(C)C)C(C)C`, the Activity in experiment [3] amounted to 1.7; in experiment [6], 3.9; in [8] it was 22.2. For the same compound, the Recovery time was 72 min in [4], 83 min in experiment [5] and 34 min in experiment [7].

For the compound `CNCC(=O)N[C@@H](CCCN=C(N)N)C(=O)N[C@H](C(=O)N[C@@H](Cc1ccc(O)cc1)C(=O)N[C@H](C(=O)N[C@@H](Cc1c[nH]cn1)C(=O)N1CCC[C@H]1C(=O)N[C@@H](Cc1ccc(-c2ccccc2)cc1)C(=O)O)C(C)C)C(C)C` [listing 1 of 2 here], the Ki was determined as 1 nM in experiment [1] and 1.74 nM in [2].

As for `CNCC(=O)N[C@@H](CCCN=C(N)N)C(=O)N[C@H](C(=O)N[C@@H](Cc1ccc(O)cc1)C(=O)N[C@H](C(=O)N[C@@H](Cc1c[nH]cn1)C(=O)N1CCC[C@H]1C(=O)N[C@H](Cc1ccc(-c2ccccc2)cc1)C(=O)O)C(C)C)C(C)C` [listing 1 of 2 here], the Ki in experiment [1] turned out to be 0.46 nM; in [2], 0.74 nM.

As for `CNCC(=O)N[C@@H](CCCN=C(N)N)C(=O)N[C@H](C(=O)N[C@@H](Cc1ccc(O)cc1)C(=O)N[C@H](C(=O)N[C@@H](Cc1c[nH]cn1)C(=O)N1CCC[C@H]1C(=O)NC1(C(=O)O)Cc2ccccc2C1)C(C)C)C(C)C` [listing 2 of 2 here], the results for the Activity in experiment [9], in experiment [10] and in experiment [11] were 8.7, 16.2 and 31.8, respectively.

The compound `CNCC(=O)N[C@@H](CCCN=C(N)N)C(=O)N[C@H](C(=O)N[C@@H](Cc1ccc(O)cc1)C(=O)N[C@H](C(=O)N[C@@H](Cc1c[nH]cn1)C(=O)N1CCC[C@H]1C(=O)N[C@@H](C(=O)O)C(c1ccccc1)c1ccccc1)C(C)C)C(C)C` [listing 1 of 2 here] came in with an Activity in [12] of 48%.

For `CNCC(=O)N[C@@H](CCCN=C(N)N)C(=O)N[C@H](C(=O)N[C@@H](Cc1ccc(O)cc1)C(=O)N[C@H](C(=O)N[C@@H](Cc1c[nH]cn1)C(=O)N1CCC[C@H]1C(=O)N[C@H](Cc1ccc(-c2ccccc2)cc1)C(=O)O)C(C)C)C(C)C` [listing 2 of 2 here], the Activity in experiment [9] is listed as 7.2; in experiment [10], 24.6; in experiment [11], 44.7.

On to `CNCC(=O)N[C@@H](CCCN=C(N)N)C(=O)N[C@H](C(=O)N[C@@H](Cc1ccc(O)cc1)C(=O)N[C@H](C(=O)N[C@@H](Cc1c[nH]cn1)C(=O)N1CCC[C@H]1C(N)=O)C(C)C)C(C)C`, for which the inhibition constant Ki in experiment [1] is 9310 nM; in experiment [2], 52.8 nM.

As for `CNCC(=O)N[C@@H](CCCN=C(N)N)C(=O)N[C@H](C(=O)N[C@@H](Cc1ccc(O)cc1)C(=O)N[C@H](C(=O)N[C@@H](Cc1c[nH]cn1)C(=O)N1CCC[C@H]1C(=O)N[C@H](C(=O)O)C(c1ccccc1)c1ccccc1)C(C)C)C(C)C` [listing 1 of 2 here], the Ki in [1] amounted to 0.85 nM; in experiment [2] it was 1.23 nM.

Regarding `CNCC(=O)N[C@@H](CCCN=C(N)N)C(=O)N[C@H](C(=O)N[C@@H](Cc1ccc(O)cc1)C(=O)N[C@H](C(=O)N[C@@H](Cc1c[nH]cn1)C(=O)N1CCC[C@H]1C(=O)N[C@@H](C(=O)O)C(c1ccccc1)c1ccccc1)C(C)C)C(C)C` [listing 2 of 2 here], the Ki is reported as 1.64 nM in [1] and 6.08 nM in experiment [2].

`CNCC(=O)N[C@@H](CCCN=C(N)N)C(=O)N[C@H](C(=O)N[C@@H](Cc1ccc(O)cc1)C(=O)N[C@H](C(=O)N[C@@H](Cc1c[nH]cn1)C(=O)N1CCC[C@H]1C(=O)N[C@H](C(=O)O)C(c1ccccc1)c1ccccc1)C(C)C)C(C)C` [listing 2 of 2 here]: in [12], the Activity was 284%.

As for `CNCC(=O)N[C@@H](CCCN=C(N)N)C(=O)N[C@H](C(=O)N[C@@H](Cc1ccc(O)cc1)C(=O)N[C@H](C(=O)N[C@@H](Cc1c[nH]cn1)C(=O)N1CCC[C@H]1C(=O)N[C@@H](Cc1ccc(-c2ccccc2)cc1)C(=O)O)C(C)C)C(C)C` [listing 2 of 2 here], the Activity is given as 9.2 in experiment [9], 71.7 in experiment [10] and 208.2 in [11].

Take H-NRVYVHPF-OH [ANGIOTENSIN AMIDE]: the Ki is 1.64 nM in experiment [1] and 5.48 nM in experiment [2]. This compound also came in with an Activity in [12] of 100%.
